Source: US10765114B2, “4-amino-6-(pyridyl and 2-substitutedphenyl)-picolinates and 6-amino-2-(pyridyl and 2-substitutedphenyl)-pyrimidine-4-carboxylates and their use as herbicides” (Dow AgroSciences LLC, priority 2013, dated 2020)
Read-outs that look alike come from different tables or passages of the source.

Tests used:
[1] = test system: Key Grass and Sedge Weeds as well as Grass Crops; assay: Post-Emergent Test II (Table 6); format: in vivo; conditions: for Visual Growth Reduction (%) 14 Days After Application, CYPSS: CYPSS (CYPES: yellow nutsedge, Cyperus esculentus); for Visual Growth Reduction (%) 14 Days After Application, ECHSS: ECHSS (ECHCG: barnyardgrass, Echinochloa crus-galli); for Visual Growth Reduction (%) 14 Days After Application, ORYSS: ORYSS (ORYSA: rice, Oryza sativa); for Visual Growth Reduction (%) 14 Days After Application, ORYSS / Visual Growth Reduction (%) 14 Days After Application, TRZSS / Visual Growth Reduction (%) 14 Days After Application, ZEAMX: crop; for Visual Growth Reduction (%) 14 Days After Application, SORVU: SORVU: johnsongrass (Sorghum vulgare); for Visual Growth Reduction (%) 14 Days After Application, TRZSS: TRZSS (TRZAS: wheat, spring, Triticum aestivum); for pest or weed control at 140 g/ha: post-emergence, 336 h, 14 days after application
Method: (§1) Seeds or nutlets of the desired test plant species were planted in Sun Gro Metro-Mix® 360 planting mixture, which typically has a pH of 6.0 to 6.8 and an organic matter content of about 30 percent, in plastic pots with a surface area of 64 square centimeters. When required to ensure good germination and healthy plants, a fungicide treatment and/or other chemical or physical treatment was applied. The plants were grown for 7-21 days in a greenhouse with an approximate 15 h photoperiod which was maintained at about 23-29° C. during the day and 22-28° C. during the night. Nutrients and water were added on a regular basis and supplemental lighting was provided with overhead metal halide 1000-Watt lamps as necessary. The plants were employed for testing when they reached the first or second true leaf stage.
(§2) A weighed amount, determined by the highest rate to be tested, of each test compound was placed in a 25 mL glass vial and was dissolved in 4 mL of a 97:3 v/v mixture of acetone and DMSO to obtain concentrated stock solutions. […] The concentrated stock solutions obtained were diluted with 20 mL of an aqueous mixture containing acetone, water, isopropyl alcohol, DMSO, Atplus 411F crop oil concentrate, and Triton® X-155 surfactant in a 48.5:39:10:1.5:1.0:0.02 v/v ratio to obtain spray solutions containing the highest application rates. Additional application rates were obtained by serial dilution of 12 mL of the high rate solution into a solution containing 2 mL of 97:3 v/v mixture of acetone and DMSO and 10 mL of an aqueous mixture containing acetone, water, isopropyl alcohol, DMSO, Atplus 411F crop oil concentrate, and Triton X-155 surfactant in a 48.5:39:10:1.5:1.0:0.02 v/v ratio to obtain ½×, ¼×, ⅛× and 1/16× rates of the high rate. Compound requirements are based upon a 12 mL application volume at a rate of 187 liters per hectare (L/ha). Formulated compounds were applied to the plant material with an overhead Mandel track sprayer equipped with 8002E nozzles calibrated to deliver 187 L/ha over an application area of 0.503 square meters at a spray height of 18 inches (43 cm) above the average plant canopy height. Control plants were sprayed in the same manner with the solvent blank.
(§3) The treated plants and control plants were placed in a greenhouse as described above and watered by subirrigation to prevent wash-off of the test compounds. After 14 days, the condition of the test plants as compared with that of the untreated plants was determined visually and scored on a scale of 0 to 100 percent where 0 corresponds to no injury and 100 corresponds to complete kill and presented as indicated in Table A. Some of the compounds tested, application rates employed, plant species tested, and results are given in Table 5.

[2] = test system: Key Broadleaf Weed and Crop Species; assay: Post-Emergent Test II (Table 5); format: in vivo; conditions: post-emergence, 336 h; for pest or weed control at 70 g/ha: application rate 70 (kg ai/ha; footnote: g ai/ha); for pest or weed control at 140 g/ha: application rate 140 (kg ai/ha; footnote: g ai/ha)
Method: as §1, §2, §3

[3] = Abutilon theophrasti, ABUTH: velvetleaf (Abutilon theophrasti), read-out: Visual Growth Reduction (%) 14 Days After Application ABUTH
[4] = Amaranthus retroflexus, AMARE: redroot pigweed (Amaranthus retroflexus), read-out: Visual Growth Reduction (%) 14 Days After Application AMARE
[5] = Brassica napus, BRSSS: oilseed rape, canola (Brassica napus), read-out: Visual Growth Reduction (%) 14 Days After Application BRSSS
[6] = Chenopodium album, CHEAL: lambsquarters (Chenopodium album), read-out: Visual Growth Reduction (%) 14 Days After Application CHEAL
[7] = Euphorbia heterophylla, EPHHL: wild poinsettia (Euphorbia heterophylla), read-out: Visual Growth Reduction (%) 14 Days After Application EPHHL
[8] = Helianthus annuus, HELAN: sunflower (Helianthus annuus), read-out: Visual Growth Reduction (%) 14 Days After Application HELAN
[9] = Viola tricolor, VIOTR: wild pansy (Viola tricolor), read-out: Visual Growth Reduction (%) 14 Days After Application VIOTR

CCc1c(-c2cc(N)c(Cl)c(C(=O)OC)n2)ccc(Cl)c1F [Compound 21]
140 to 143 °C: melting point

COC(=O)c1nc(-c2ccc(C(F)F)nc2)c(F)c(N)c1Cl [Compound 34, methyl 4-amino-5-chloro-6′-(difluoromethyl)-3-fluoro-2,3′-bipyridine-6-carboxylate]
144 to 146 °C: melting point

COC(=O)c1nc(-c2ccc(Cl)c(F)c2Cl)c(F)c(N)c1Cl [Compound 19, Methyl 4-amino-3-chloro-6-(2,4-dichloro-3-fluorophenyl)-5-fluoropicolinate]
E (45-59): Visual Growth Reduction (%) 14 Days After Application, DIGSA ([1]; DIGSA: crabgrass (Digitaria sanguinalis), 70 g ai/ha) | Visual Growth Reduction (%) 14 Days After Application, ORYSS ([1]; 140 g ai/ha)
A (95-100): Visual Growth Reduction (%) 14 Days After Application, CYPSS ([1]; 70 g ai/ha) | Visual Growth Reduction (%) 14 Days After Application, CYPSS ([1]; 140 g ai/ha) | Visual Growth Reduction (%) 14 Days After Application, ECHSS ([1]; 140 g ai/ha) | Visual Growth Reduction (%) 14 Days After Application, ZEAMX ([1]; ZEAMX: maize, corn (Zea mays), 140 g ai/ha)
C (75-84): Visual Growth Reduction (%) 14 Days After Application, DIGSA ([1]; DIGSA: crabgrass (Digitaria sanguinalis), 140 g ai/ha) | Visual Growth Reduction (%) 14 Days After Application, ECHSS ([1]; 70 g ai/ha) | Visual Growth Reduction (%) 14 Days After Application, SETFA ([1]; SETFA: giant foxtail (Setaria faberi), 70 g ai/ha) | Visual Growth Reduction (%) 14 Days After Application, TRZSS ([1]; 70 g ai/ha) | Visual Growth Reduction (%) 14 Days After Application, TRZSS ([1]; 140 g ai/ha)
95 to 100%: pest or weed control at 70 g/ha [2, 3] | pest or weed control at 140 g/ha [2, 3] | pest or weed control at 70 g/ha [2, 4] | pest or weed control at 140 g/ha [2, 4] | pest or weed control at 70 g/ha [2, 5] | pest or weed control at 140 g/ha [2, 5] | pest or weed control at 140 g/ha [2, 6] | pest or weed control at 140 g/ha [2, 7] | pest or weed control at 70 g/ha [2, 8] | pest or weed control at 140 g/ha [2, 8] | pest or weed control at 140 g/ha [2, 9]
B (85-94): Visual Growth Reduction (%) 14 Days After Application, SETFA ([1]; SETFA: giant foxtail (Setaria faberi), 140 g ai/ha) | Visual Growth Reduction (%) 14 Days After Application, SORVU ([1]; 70 g ai/ha) | Visual Growth Reduction (%) 14 Days After Application, SORVU ([1]; 140 g ai/ha) | Visual Growth Reduction (%) 14 Days After Application, ZEAMX ([1]; ZEAMX: maize, corn (Zea mays), 70 g ai/ha)
85 to 94%: pest or weed control at 70 g/ha [2, 6] | pest or weed control at 70 g/ha [2, 7] | pest or weed control at 70 g/ha [2, 9]
F (30-44): Visual Growth Reduction (%) 14 Days After Application, ORYSS ([1]; 70 g ai/ha)

Nc1c(F)c(-c2ccc(C(F)(F)F)nc2F)nc(C(=O)O)c1Cl [Compound 26]
0 to 29%: pest or weed control at 140 g/ha ([1]; CYPSS, 140 g ai/ha, read-out: Visual Growth Reduction (%) 14 Days After Application CYPSS) | pest or weed control at 140 g/ha ([1]; DIGSA: crabgrass (Digitaria sanguinalis), 140 g ai/ha, read-out: Visual Growth Reduction (%) 14 Days After Application DIGSA) | pest or weed control at 140 g/ha ([1]; ECHSS, 140 g ai/ha, read-out: Visual Growth Reduction (%) 14 Days After Application ECHSS) | pest or weed control at 140 g/ha ([1]; ORYSS (crop), 140 g ai/ha, read-out: Visual Growth Reduction (%) 14 Days After Application ORYSS) | pest or weed control at 140 g/ha ([1]; SETFA: giant foxtail (Setaria faberi), 140 g ai/ha, read-out: Visual Growth Reduction (%) 14 Days After Application SETFA) | pest or weed control at 140 g/ha ([1]; SORVU: grain sorghum (Sorghum vulgare), 140 g ai/ha, read-out: Visual Growth Reduction (%) 14 Days After Application SORVU) | pest or weed control at 140 g/ha ([1]; TRZSS (crop), 140 g ai/ha, read-out: Visual Growth Reduction (%) 14 Days After Application TRZSS) | pest or weed control at 140 g/ha ([1]; ZEAMX: maize, corn (Zea mays), 140 g ai/ha, read-out: Visual Growth Reduction (%) 14 Days After Application ZEAMX) | pest or weed control at 140 g/ha [2, 3] | pest or weed control at 140 g/ha [2, 4] | pest or weed control at 140 g/ha [2, 5] | pest or weed control at 140 g/ha [2, 6] | pest or weed control at 140 g/ha [2, 7] | pest or weed control at 140 g/ha [2, 9]
45 to 59%: pest or weed control at 140 g/ha [2, 8]
